We go through 1 compound from patent publication US11426406B2, “Compositions and methods for treating lysosomal storage disorders” (GEORGETOWN UNIVERSITY, priority 2017, dated 2022).

What all share (assay type): in vivo
For assay [1], the system named is male Sgsh transgenic mice (MPS). As to the kind of experiment: Post-treatment rotarod test in MPS mice (Sanfilippo A model). The following applies: daily I.P. 21 days, nilotinib 10 mg/kg, bosutinib 5 mg/kg, vs DMSO and non-TG controls, FIG. 3. The method, then: (§1) Twelve 8-9 month old, male Sgsh transgenic mice (MPS) were used for all experiments and were compared to fourteen non-transgenic age-matched, littermates (non-TG). […] Treatment lasted for 21 days. At the end of the treatment period the mice underwent behavioral testing again and Western blot analysis was performed.
Rotarod: Mice were placed on the rotarod apparatus which sped up to 50 rpm, over the course of 5 minutes for 3-5 trials, with a minimum of 30 minutes rest between trials. Data collected were the time the animal remained ambulatory on the rotating rod, in seconds, labelled “latency to fall.” Data is also presented as “percentage difference” where all groups are normalized to the non-transgenic, untreated group, assuming non-transgenic, untreated animals are preforming at 100%.
(§2) Post-treatment rotarod MPS versus non-TG littermate mice: After the behavioral tests were conducted the symptomatic MPS mice were divided into three groups (n=4). […] There were three control groups made of age matched non-TG littermate controls (n=4, 5) which were treated in the same way. Behavioral tests were repeated and data collected is referred to as “post-treatment.” Since there was no significant difference between the control non-TG treatment groups, they were combined into one non-TG control group.
For orientation: In the rotarod test animals must keep their balance on a rotating rod.

Assay [2] has the same test system. As to the kind of experiment: Open-field anxiety test in MPS mice (Sanfilippo A model). The following applies: daily I.P. 21 days, nilotinib 10 mg/kg, bosutinib 5 mg/kg, 5 minute trial, FIG. 2C.
Description: Open-field Anxiety: Mice were placed in the open field arena for 5 minutes. Animals were tracked by photocell beams along the arena floor. Data were collected and analyzed for the number of entries into the center zone of the arena, the total distance (cm) traveled within the center zone, the amount of time (sec) spent in the center zone, the total distance traveled (cm) in the peripheral wall zone of the arena, the amount of time spent (sec) in the wall zone, the total distance traveled (cm) during the 5 minute trial, the total time spent moving ‘total ambulatory time’ (sec) during the 5 minute trial, and the average velocity (cm/sec) during the 5 minute trial.
The test system is the same in assay [3]. As to the kind of experiment: Open-field locomotion test in MPS mice (Sanfilippo A model). Conditions: daily I.P. 21 days, nilotinib 10 mg/kg, bosutinib 5 mg/kg, FIG. 2C. The method, then: as §1
Open-field Locomotion: Mice were placed in the open field arena for 60 minutes. Animals were tracked by photocell beams along the arena floor. Data were collected and analyzed for total locomotion via total cm travelled. Other data collected were the total time spent moving ‘total ambulatory time’ (sec) during the 60 minute trial and the average velocity (cm/sec) during the 60 minute trial.
as §2

For the compound `Cc1cn(-c2cc(NC(=O)c3ccc(C)c(Nc4nccc(-c5cccnc5)n4)c3)cc(C(F)(F)F)c2)cn1` [nilotinib], the “rotarod performance (latency to fall), post-treatment” value in assay [1] was “perform better than the MPS mice treated with DMSO or bosutinib, and look more like the non-TG controls”. The “anxiety (entries into center zone), open field” value in assay [2] was “reduced anxiety (more entries into center zone, p<0.05)”. Besides, the “overall locomotion activity, open field” value in assay [3] is reported as “increased the overall locomotion (p<0.05) activity”.
